{"source": "patent US7947435B2", "about": "“Neuronal regeneration material screening method by ex vivo model” (Seoul National University Industry Foundation, priority 2007, dated 2011)", "key": {"spinal cord slices [1]": {"tested_on": "spinal cord slices", "experiment": "Immunofluorescent staining of lysolecithin-demyelinated spinal cord slices", "assay_type": "cell-based, Sprague-Dawley rats", "conditions": "spinal cord slices treated with 0.5 mg/ml lysolecithin for 17 hours, compared with the control; FIG. 1", "text": "(§1) <1-2> Preparation of Spinal Cord Tissue Slices Sprague-Dawley rats at 16 days old were anesthetized and the spinal cord was extracted. The spinal cord was put into ice-cold HBSS (Hanks balanced salt solution). Thoracic and lumbar spinal cords were cult into 400 μm in thickness by using a tissue chopper (McIlwain tissue chopper, The Mickle Laboratory Engineering Co. LTD, England). Several spinal cord slices were loaded on 0.4 μm filter (Millicell-CM filters, Millipore, USA) placed on a 6 well plate. The spinal cord slices were cultured in 1 ml of 25% horse serum (Invitrogen, USA) containing 50% MEM (Invitrogen, USA) supplemented with Earl's salts, 25% HBSS (Invitrogen, USA), 20 mM HEPES (Sigma, USA) and 6 mg/ml of D-glucose (Duchefa, Netherlands). The culture conditions were 5% CO2, 37° C. and the medium was replaced with a fresh medium twice a week. <1-3> Demyelination by Lysolecithin\n(§2) The spinal cord slices were cultured in vitro (DIV, days in vitro) for 7 days. After treating 0.5 mg/ml of lysolecithin, the slices were cultured at 37° C. for 17 hours to induce demyelination of axons (Birgbauer et al., J Neurosci Res, 78, 157-166, 2004). After inducing demyelination, the medium containing lysolecithin was replaced with 1 ml of fresh medium. […]"}, "spinal cord slices [2]": {"tested_on": "spinal cord slices", "experiment": "Histological analysis of spinal cord tissue slices (Luxol fast blue, H&E)", "assay_type": "cell-based, Sprague-Dawley rats", "conditions": "spinal cord slices treated with 0.5 mg/ml lysolecithin for 17 hours, compared with the control; FIG. 1", "text": "as §1, §2"}}, "data": [{"substance": "lysolecithin", "values": [{"measurement": "MBP expression", "setting": "spinal cord slices [1]", "value": "decreased"}, {"measurement": "demyelination (myelin, Luxol fast blue staining)", "setting": "spinal cord slices [2]", "value": "serious demyelination was observed"}]}]}
